Test results: the supplement of paper PMC10307832

Legend:
Assay in all cases: relative viability (nuclei count vs DMSO), 5 days (fraction); higher = more cells survive
Kobe2602 + Foretinib = compound: C1=CC(=CC=C1NC(=S)NNC2=C(C=C(C=C2[N+](=O)[O-])C(F)(F)F)[N+](=O)[O-])F [Kobe2602] + COc1cc2c(Oc3ccc(NC(=O)C4(C(=O)Nc5ccc(F)cc5)CC4)cc3F)ccnc2cc1OCCCN1CCOCC1 [Foretinib] (partner 0.25 µM)
How it was run: (§1)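 Lung cancer cell lines were pin-tool dosed in 1536-well plates on the day after seeding, with either a lone drug or a fixed anchor-drug dose plus five library-drug doses (not always all listed) in √10 steps. Nuclei were counted on 4× images after 5 days. Relative viability is the ratio of treated-well to vehicle-well nuclei counts, with each value a median of duplicate plates.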

Kobe2602 + Lapatinib = compound: C1=CC(=CC=C1NC(=S)NNC2=C(C=C(C=C2[N+](=O)[O-])C(F)(F)F)[N+](=O)[O-])F [Kobe2602] + CS(=O)(=O)CCNCc1ccc(-c2ccc3ncnc(Nc4ccc(OCc5cccc(F)c5)c(Cl)c4)c3c2)o1 [Lapatinib] (partner 2 µM)
How it was run: as §1

[1] = compound: COc1cc2nccc(Oc3ccc(NC(=O)C4(C(=O)Nc5ccc(F)cc5)CC4)cc3)c2cc1OC [Cabozantinib] + Cc1cc(Nc2cc(N3CCN(C)CC3)nc(Sc3ccc(NC(=O)C4CC4)cc3)n2)n[nH]1 [Tozasertib] (partner 0.1 µM)
How it was run: as §1

[2] = compound: COc1cc2nccc(Oc3ccc(NC(=O)C4(C(=O)Nc5ccc(F)cc5)CC4)cc3)c2cc1OC [Cabozantinib] + Nc1ncn([C@H]2C[C@H](O)[C@@H](CO)O2)c(=O)n1 [Decitabine] (partner 2 µM)
How it was run: as §1

Cell Line	relative viability (Kobe2602 + Foretinib; first compound 0.2 µM)	relative viability (Kobe2602 + Foretinib; first compound 0.6325 µM)	relative viability (Kobe2602 + Foretinib; first compound 2 µM)	relative viability (Kobe2602 + Foretinib; first compound 6.325 µM)	relative viability (Kobe2602 + Foretinib; first compound 20 µM)	relative viability (Kobe2602 + Lapatinib; first compound 0.2 µM)	relative viability (Kobe2602 + Lapatinib; first compound 0.6325 µM)	relative viability (Kobe2602 + Lapatinib; first compound 2 µM)	relative viability (Kobe2602 + Lapatinib; first compound 6.325 µM)	relative viability (Kobe2602 + Lapatinib; first compound 20 µM)	relative viability ([1]; first compound 0.02 µM)	relative viability ([1]; first compound 0.06325 µM)	relative viability ([1]; first compound 0.2 µM)	relative viability ([1]; first compound 0.6325 µM)	relative viability ([1]; first compound 2 µM)	relative viability ([2]; first compound 0.02 µM)	relative viability ([2]; first compound 0.06325 µM)	relative viability ([2]; first compound 0.2 µM)	relative viability ([2]; first compound 0.6325 µM)	relative viability ([2]; first compound 2 µM)
201T	1.16	1.17	1.04	0.946	0.93	0.986	1.1	1.07	1.01	1.04	0.968	1.1	0.916	0.935	0.87	0.874	0.945	0.839	0.836	0.826
A549	0.955	0.991	0.908	0.924	0.958	0.922	0.978	0.88	1.05	0.881	–	–	–	–	–	0.298	0.26	0.263	0.313	0.306
A-427	0.983	1.21	1.06	1.1	1.08	0.995	1.02	1.01	1.03	0.953	0.316	0.201	0.209	0.213	0.185	0.569	0.589	0.57	0.621	0.596
ABC-1	0.957	0.922	–	0.93	1.3	1.5	1.24	1.11	1.22	1.27	0.194	0.195	0.265	0.194	0.218	–	0.846	1.05	1.05	0.982
BEN	0.591	0.706	0.738	0.58	0.768	0.671	0.935	0.782	0.69	0.811	0.512	0.474	0.507	0.56	0.461	0.63	0.815	0.7	0.733	0.566
CAL-12T	1.02	1.02	1.09	1.05	1.06	0.676	0.717	0.681	0.627	0.696	0.366	0.446	0.369	0.261	0.247	–	–	–	–	–
COR-L23	0.902	0.972	0.966	0.96	0.951	0.856	1.05	1.02	0.876	0.907	0.235	0.212	0.194	0.145	0.137	0.449	0.371	0.445	0.441	0.419
COR-L 105	0.986	1.02	0.867	1.1	0.979	0.369	0.381	0.379	0.38	0.401	0.397	0.457	–	0.361	0.342	0.606	0.764	0.582	0.735	0.69
Calu-6	0.858	0.935	0.894	0.86	0.875	1.08	1.14	1.1	1.04	0.995	–	–	–	–	–	–	–	–	–	–
ChaGo-K-1	0.971	1.03	0.865	0.954	0.838	–	–	–	–	–	0.263	0.203	0.234	0.23	0.201	0.551	0.52	0.549	0.534	0.547
EBC-1	0.116	0.108	0.113	0.0943	0.111	0.211	0.201	0.204	0.227	0.208	–	–	–	–	–	–	–	–	–	–
EKVX	1.05	0.753	0.7	0.839	1.03	0.207	0.223	0.221	0.184	0.267	0.422	0.481	0.364	0.394	0.314	0.328	0.386	0.261	0.336	0.394
EMC-BAC-2	0.938	1.03	0.99	1.04	1.02	0.89	0.935	0.904	0.904	0.909	0.292	0.335	0.334	0.284	0.295	0.998	0.963	1.04	0.994	1.13
EPLC-272H	0.41	0.937	0.667	0.668	0.796	1.05	0.956	0.916	0.853	1.01	0.357	0.338	0.204	0.295	0.352	0.37	0.395	0.33	0.377	0.336
H3255	0.946	0.834	0.784	0.882	0.944	0.244	0.301	0.234	0.25	0.239	0.605	1.34	–	0.471	0.775	0.618	0.636	–	0.685	0.644
HARA	0.996	0.795	0.893	0.856	0.892	0.677	0.844	0.689	0.697	0.814	0.132	0.113	0.116	0.129	0.107	0.556	0.653	–	0.812	0.786
HCC-15	0.979	1.09	0.974	1.09	0.974	0.856	0.937	0.81	0.863	0.809	0.462	0.432	0.437	0.44	0.267	0.562	0.788	0.683	0.644	0.536
HCC-44	–	–	–	–	–	1	1.05	1.01	1.03	0.954	–	1.27	0.979	1	0.758	0.908	0.996	0.981	1	0.987
